Source: patent US4978654A, “Composition and method for treatment of disseminated fungal infections in mammals” (priority 1987, dated 1990)
≈ marks a conversion by molar mass, not a printed value.

Tests used:
[1] = Poste, Biol. Cell 47; 19 (1983); cited from earlier work
Candida albicans = assay: In vitro MFC, YNB tube dilution (Table 1); type: cell-based; details: 18 h
Description: (§1) In vitro tests were conducted to determine the effect of free Amp B, Amp B encapsulated in nor-sterol-containing liposomes, (L-Amp B), Amp B encapsulated in cholesterol-containing liposomes (L-Amp B-C) and Amp B in ergosterol-containing liposomes (L-Amp B-E). Desoxycholate free Amphotericin B was obtained from E. R. Squibb & Sons, Inc. Amp B was encapsulated in non-sterol containing liposomes by the method described by Lopez-Berestein, et al., and summarized in Example 1, above. In order to obtain the different doses necessary, lipid concentration was held constant as the Amp B concentration was decreased. The concentration of Amp B within the liposome was determined by scanning in a UV absorption spectrophotometer (Gilford Instrument Laboratories, Oberlin, Ohio) at 405 nm after the Amp B was dissolved in methanol. Cholesterol or ergosterol, obtained from Avanti Polar Lipids (Birmingham, Ala.), was added to the chloroform DMPC:DMPG solution at a molar ratio of 7:3:4 (DMPC:DMPG:sterol).
(§2) In vitro activity of free Amp B, L-Amp B, L-Amp B-C and L-Amp B-E was tested on the following yeast species, all clinical isolates obtained from the Clinical Microbiology Laboratories at the University of Texas M.D. Anderson Hospital and Tumor Institute at Houston: Candida albicans, C. tropicalis, C. parapsilosis, Torulopsis glabrata and Cryptococcus neoformans. The YNB tube dilution method described by Shadomy, S., et al., "Susceptibility Testing with Antifungal Drugs." In Lennette, E. H., et al. (eds.), Manual of Clinical Microbiology, 3rd Ed. (Washington, D.C., American Society for Microbiology, 1980), pp. 647-653, hereby incorporated by reference, was used to perform all tests. All tubes were subcultured (10 μl ) onto Sabouraud-dextrose agar (SDA) (Scott/Randolph, Houston, Tex.) plates. Minimal fungicidal concentrations (MFC) were determined after incubation for 18 hours. The MFC was defined as the lowest concentration of Amp B that allowed no growth or growth of fewer than four colonies on the subculture plates.

Candida parapsilosis = assay: In vitro MFC, YNB tube dilution (Table 1); type: cell-based; details: 18 h
Description: as §1, §2

Candida tropicalis = assay: In vitro MFC, YNB tube dilution (Table 1); type: cell-based; details: 18 h
Description: as §1, §2

Candida glabrata = assay: In vitro MFC, YNB tube dilution (Table 1); type: cell-based, Candida glabrata (Torulopsis glabrata in method); details: 18 h
Description: as §1, §2

Candida neoformans = assay: In vitro MFC, YNB tube dilution (Table 1); type: cell-based, Candida neoformans (Cryptococcus neoformans in method); details: 18 h
Description: as §1, §2

[2] = tested on: yeast species, clinical isolates; assay: In vitro antifungal activity summarized over the 19 yeast strains; type: cell-based
Description: as §1, with “Cholesterol or ergosterol, obtained from Avanti Polar Lipids (Birmingham, Ala.), was added to the chloroform DMPC:DMPG solution at a molar ratio of 7:3:4 (DMPC:DMPG:sterol).” left out
In vitro activity of free Amp B, L-Amp B, L-Amp B-C and L-Amp B-E was tested on the following yeast species, all clinical isolates obtained from the Clinical Microbiology Laboratories at the University of Texas M.D. Anderson Hospital and Tumor Institute at Houston: Candida albicans, C. tropicalis, C. parapsilosis, Torulopsis glabrata and Cryptococcus neoformans. […] Minimal fungicidal concentrations (MFC) were determined after incubation for 18 hours. […]

C. albicans = assay: MFC of Amp B in different phospholipid compositions (Table 3); type: cell-based, Candida albicans; details: effect of lipid composition
Description: The compositions included one or more of the following: DMPC, DMPG, cholesterol (Chol), ergosterol (Erg), and stearylamine (SA).

C. albicans 336 = assay: Survival of infected mice, effect of lipid composition (FIG. 3); type: in vivo, Hale-Stoner mice; details: 1.6 mg Amp B/kg
Description: Hale-Stoner mice, 6-8 weeks old and weighing 20-25 g, were obtained from The University of Texas Science Park (Bastrop, Tex.). Mice (10 per group) were injected intravenously with Candida albicans strain 336. This strain was grown for 18 hours on SDA plates at 37° C., washed and resuspended in saline. The mice were injected in the tail vein with 0.2 ml of the suspension containing 7×10^5 colony-forming units. […] The mice were injected on the second day of infection with a single dose of Amphotericin B.
Amp B was encapsulated in sterol-free and sterol-containing liposomes prepared by the method described in Example 2, above. Amp B concentration was determined at 405 nm as described in Example 2.
The effect of the lipid composition of the liposome on the survival of mice infected with C. albicans 336 was also evaluated. Each liposome case shown in FIG. 3 used 1.6 mg Amp B in 200 mg total lipid/kg.

[3] = Toxicity / tolerated dose in mice; details: mouse, in vivo
Description: The liposome-encapsulated Amp B may then be administered to a mammal infected with a fungal infection.

physchem = type: physicochemical; details: organic solvent or mixture
Description: The lipids dimyristoyl phosphatidylcholine (DMPC) and dimyristoyl phosphatidylglycerol (DMPG) were obtained from Avanti Polar Lipids (Birmingham, Ala.), and desoxycholate-free Amp B was obtained from Dr. Dan Bonner (Squibb Pharmaceuticals, New Brunswick, N.J.). DMPC and DMPG were dissolved in chloroform in a molar ratio of 7:3 DMPC:DMPG. Amp B was dissolved in methanol at a concentration of 40 μg/ml and the Amp B solution added to the chloroform containing the DMPC and DMPG. This mixture was placed in a rotary evaporator (Rotavapor®; Brinkman Instruments, Westbury, N.Y.) until all organic solvents were removed. Normal saline was then added and the vesicles formed by gentle agitation. Using this method, to prepare enough liposome-encapsulated Amp B to make up a single dose for a 50 kg patient at a dose of 0.8 mg/kg body weight (as discussed in Example 4) requires the drying of at least 1 to 1.5 liters of the Amp B-methanol solution. Under controlled temperature and pressure conditions, approximately 3 to 4 hours are required to evaporate this volume of the Amp B-methanol solution.
Using this method, 640 μg of Amp B was dissolved in 1 ml of chloroform (containing 25 mg of the lipid mixture), a significant increase over the 40 μg/ml which can be dissolved in methanol as in the method described above. […]

Aspergillus terreus = assay: Treatment of cancer patient, Case 2; type: in vivo, human
[4] = tested on: systemic fungal infection (fungal liver abscesses, consistent with Aspergillus spp.); details: human, in vivo
[5] = cited from earlier work
[6] = intravenous administration; cited from earlier work

In the case of `CCCCCCCCCCCCCCCCOP(=O)(O)OCCCCCCCCCCCCCCCC` [dicetyl phosphate], the “toxicity in mammalian systems” value [1] is given as “toxic in mammalian systems in that they cause damage to the liver”.

For `CCCCCCCCCCCCCCCCCCN` [stearylamine], the “toxicity in mammalian systems” value [1] is listed as “toxic in mammalian systems in that they cause damage to the liver”.

Work on `C[C@@H]1[C@H](O)[C@@H](C)/C=C/C=C/C=C/C=C/C=C/C=C/C=C/[C@H](O[C@@H]2O[C@H](C)[C@@H](O)[C@H](N)[C@@H]2O)C[C@@H]2O[C@](O)(C[C@@H](O)C[C@@H](O)[C@H](O)CC[C@@H](O)C[C@@H](O)CC(=O)O[C@H]1C)C[C@H](O)[C@H]2C(=O)O` [Amp B, Amphotericin B] yielded an MFC (Candida albicans; strain 57) of 0.8 μg/Amp B/ml, an MFC (Candida albicans; strain 306) of 1.6 μg/Amp B/ml and an MFC (Candida albicans; strain 704) of 0.4 μg/Amp B/ml. It also gave an MFC (Candida albicans; strain 1091) of 0.8 μg/Amp B/ml, an MFC (Candida parapsilosis; strain 139) of 3 μg/Amp B/ml and an MFC (Candida parapsilosis; strain 1341) greater than 25 μg/Amp B/ml. The MFC (Candida parapsilosis; strain 2300) was 3 μg/Amp B/ml, the MFC (Candida tropicalis; strain 251) was 3 μg/Amp B/ml and the MFC (Candida tropicalis; strain 1324) was 1.6 μg/Amp B/ml. The MFC (Candida tropicalis; strain 1784) was 3 μg/Amp B/ml, the MFC (Candida tropicalis; strain 2463) was 1.6 μg/Amp B/ml and the MFC (Candida glabrata; strain 684) was 3 μg/Amp B/ml. For the same compound, the MFC (Candida glabrata; strain 1172) was 1.6 μg/Amp B/ml, the MFC (Candida glabrata; strain 1905) was 3 μg/Amp B/ml and the MFC (Candida glabrata; strain 2539) was 3 μg/Amp B/ml. The MFC (Candida neoformans; strain 222) was 1.6 μg/Amp B/ml, the MFC (Candida neoformans; strain 595) was 0.4 μg/Amp B/ml and the MFC (Candida neoformans; strain 843) was 0.8 μg/Amp B/ml. For the same compound, the MFC (Candida neoformans; strain 881) was 1.6 μg/Amp B/ml, the “efficacy ranking in killing of the fungal strains” value [2] was “Amp B being most effective, then L-Amp B, L-Amp B-C and, finally L-Amp B-E” and the MFC (C. albicans) was 1.6 μg of Amp B per ML. The “survival time over the controls” value (C. albicans 336) was “improved survival time over the controls”, the “time to 50% survival” value (C. albicans 336; control 5 days) was 10 days and the LD50 [3] was roughly 1.2 mg/kg. The MTD ([3]; read-out: maximum dose tolerated) was 0.8 mg/kg, the solubility (physchem; chloroform with lipid mixture) was 640 µg/mL (≈ 693 µM) and the solubility (physchem; methanol) was 40 µg/mL (≈ 43.3 µM). The “response to non-liposomal Amp B therapy” value (Aspergillus terreus; intravenous) was “nasal lesions worsened in spite of Amp B therapy and new lung lesions appeared on chest x-ray examination”, the “response to Amp B by aerosolization” value (Aspergillus terreus; total of 1.4 gm by aerosolization) was “without improvement” and the “side effects of non-liposomal Amp B therapy” value (Aspergillus terreus; total of 2.4 gm intravenously) was “always associated with severe nausea, fever and chills”. For the same compound, the “side effects of non-liposomal Amp B therapy” value [4] was “fever and chills were observed”, the “solubility in aqueous solution” value [5] was “insoluble in aqueous solution” and the toxic effects [6] was “renal disfunction, anemia, fever and hypotension”.
